Assay results: PMC11284788, “NN1213 – A Potent, Long-Acting, and Selective Analog of Human Amylin” (Journal of Medicinal Chemistry, 2024)
Read-outs that look alike come from different tables or passages of the source. Numbered stars: 1 amine (or outer) side, 2 acyl side, 3 side chain; on linkers, the order of the positions; unused ones are H or OH. Bridge positions count the residues as written; N and C are the ends. Peptide text beside a SMILES is read from it. * marks the point of attachment. C20 diacid = O=C(O)CCCCCCCCCCCCCCCCCCC(=O)*; γGlu = O=C(O)[C@H](CCC(=O)[*:2])N[*:1]

Tests used:
hCTR = biological target: T1, hCTR (Homo sapiens, UniProt P30988); experiment: cAMP-responsive element luciferase reporter assay, human CTR; type: cell-based; conditions: luciferase (human receptor assay)
T1 sequence (P30988 25-474): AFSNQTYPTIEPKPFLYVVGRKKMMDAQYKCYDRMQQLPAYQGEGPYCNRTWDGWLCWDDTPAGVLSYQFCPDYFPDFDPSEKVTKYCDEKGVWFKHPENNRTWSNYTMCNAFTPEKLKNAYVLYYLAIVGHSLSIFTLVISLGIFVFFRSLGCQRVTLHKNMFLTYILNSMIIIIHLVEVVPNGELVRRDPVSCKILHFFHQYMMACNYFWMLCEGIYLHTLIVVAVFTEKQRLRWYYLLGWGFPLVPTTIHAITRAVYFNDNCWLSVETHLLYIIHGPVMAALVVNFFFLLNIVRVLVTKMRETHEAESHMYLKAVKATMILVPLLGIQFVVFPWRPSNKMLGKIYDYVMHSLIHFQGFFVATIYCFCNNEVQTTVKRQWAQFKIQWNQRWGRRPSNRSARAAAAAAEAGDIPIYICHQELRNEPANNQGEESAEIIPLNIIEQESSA

rat AMY3R = biological target: T2, rat AMY3R (Rattus norvegicus, UniProt P32214+Q9JJ73); experiment: cAMP FlashPlate assay, rat AMY3R; type: cell-based; conditions: for EC50: cAMP (rat receptor assay); for ratio rCTR/rAMY3R: ratio of cAMP EC50 values
T2 construct: expressed in transfected cells; host or cells: BHK tk-ts 13, transient co-transfection (FuGENE 6)
T2 sequence (P32214 25-479 isoform P32214-2 limits assumed): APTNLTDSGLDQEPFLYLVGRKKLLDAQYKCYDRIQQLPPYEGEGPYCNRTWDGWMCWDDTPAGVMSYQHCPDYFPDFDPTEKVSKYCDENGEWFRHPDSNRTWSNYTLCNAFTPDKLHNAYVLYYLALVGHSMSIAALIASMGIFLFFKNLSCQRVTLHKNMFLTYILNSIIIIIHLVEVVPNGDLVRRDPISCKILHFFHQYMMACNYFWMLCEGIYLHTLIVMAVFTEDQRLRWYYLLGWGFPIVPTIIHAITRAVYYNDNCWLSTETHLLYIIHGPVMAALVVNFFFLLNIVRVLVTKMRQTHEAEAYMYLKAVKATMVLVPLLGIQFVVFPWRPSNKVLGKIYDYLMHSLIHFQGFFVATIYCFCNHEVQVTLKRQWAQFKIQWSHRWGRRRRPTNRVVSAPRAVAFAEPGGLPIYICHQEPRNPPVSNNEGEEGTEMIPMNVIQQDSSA
T2 sequence (Q9JJ73 23-147 partner): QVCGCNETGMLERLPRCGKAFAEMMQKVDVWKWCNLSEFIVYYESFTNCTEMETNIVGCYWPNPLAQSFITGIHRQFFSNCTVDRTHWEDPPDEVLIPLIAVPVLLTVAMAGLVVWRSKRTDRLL

rCTR = biological target: T3, rCTR (Rattus norvegicus, UniProt P32214); experiment: scintillation proximity binding assay, rCTR membranes; conditions: SPA binding assay, Tables S13 and S15
T3 construct: expressed in transfected cells; host or cells: BHK tk-ts 13, transient (FuGENE 6)
T3 sequence (P32214 25-479 isoform P32214-2 limits assumed): T2 sequence (P32214 25-479 isoform P32214-2 limits assumed)
Method: The apparent binding affinities were determined using a scintillation proximity assay with beads from PerkinElmer and cell membranes containing the AMY3R or CTRs. […] Membranes were harvested and membranes were prepared and kept at −80 °C until use. The assay was performed in a 384-well Optiplate (PerkinElmer). Membranes were mixed with scintillation proximity assay beads in a 1:1 ratio. […] Samples were analyzed on a TopCounter (Packard). The IC50 values were calculated using GraphPad Prism. See Supporting Information S7: SAR Screening Assay Methods (Binding Assays (Human and Rat)) for more information.
Binding Assays (Human and Rat). Brief descriptions of the methods used to determine binding affinities for SAR analysis are described below. Curves and IC50 values were plotted and calculated in GraphPad Prism using nonlinear regression (one site binding competition analysis), with pIC50 values […]
values were used to calculate the binding affinity ratios in order to express the selectivity of compounds for the AMY3R versus the CTR.
CTR Binding Assay. The binding assay was performed using scintillation proximity assay (SPA) beads (RPNQ0001) from PerkinElmer and cell membranes containing either the hCTR or rCTR. BHK […]
Membranes were prepared in the following way: the cells were rinsed with PBS and incubated with Versene for approximately 5 min before harvesting. The cells were flushed with PBS and the cell-suspension was centrifuged for 5 min at 1000 rpm. Cells were homogenized (Ultra Turrax) in a buffer […]
containing 20 mM Na-HEPES and 0.1 mM EDTA (pH 7.4, buffer 2). The resulting pellet was re-suspended in buffer 2 and protein concentration was measured (BCA protein assay, Pierce). The homogenate was kept cold during the whole procedure. The membranes were stored at –80 °C until […]
The binding assay was performed in a 384-well Optiplate (PerkinElmer) in a total volume of 40 μL.
Membranes were mixed with SPA beads in a 1:1 ratio. […]
mg/well. Test compounds were dissolved in DMSO and further diluted in assay buffer (50 mM HEPES, pH 7.4, 1 mM CaCl2, 5 mM MgCl2, 0.1% ovalbumin, and 0.02% Tween-20).
Calcitonin (NEX422 PerkinElmer) was dissolved in assay buffer and added to the Optiplate at a final […]
prior to centrifugation (1500 rpm, 10 min). Samples were analyzed on TopCounter (Packard).

hAMY3R = biological target: T4, hAMY3R (Homo sapiens, UniProt O60896+P30988); experiment: scintillation proximity binding assay, hAMY3R membranes; set-up: expressed in transfected cells; host or cells: BHK tk-ts 13, transient co-transfection; membranes for the SPA, whole cells for the species-specific assays; conditions: for hAMY3R pIC50: SPA binding assay, Tables S13 and S15; for ratio hCTR/hAMY3R: ratio of binding IC50 values
T4 sequence (P30988 25-474): T1 sequence (P30988 25-474)
T4 sequence (O60896 24-148 partner): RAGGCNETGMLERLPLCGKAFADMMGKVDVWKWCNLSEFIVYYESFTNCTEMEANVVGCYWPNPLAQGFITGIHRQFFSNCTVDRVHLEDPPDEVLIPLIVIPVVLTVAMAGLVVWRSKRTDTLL

[1] = BHK cells stably expressing hCTR and CRE-luciferase, 3 h, 37 °C, 10% FBS, read-out: hCTR EC50
[2] = Tables S12 and S14, read-out: rAMY3R pEC50 (converted)
[3] = transiently transfected BHK tk-ts 13 cells, FlashPlate, 30 min room temperature, 2% HSA, read-out: rAMY3R EC50

Row | Compound | hCTR pEC50 (hCTR; Tables S12 and S14) | EC50 (hCTR; [1]) | EC50 (rat AMY3R; [2]) | EC50 (rat AMY3R; [3]) | ratio rCTR/rAMY3R (rat AMY3R) | rCTR pIC50 (rCTR) | hAMY3R pIC50 (hAMY3R) | ratio hCTR/hAMY3R (hAMY3R) | IC50 (hAMY3R; SPA, BHK cell membranes, 125I-rat amylin, 120 min 25 °C, read-out: hAMY3R IC50) | EC50 (hCTR; Tables S12 and S14, read-out: hCTR pEC50 (converted))
1 | CC[C@H](C)[C@H](NC(=O)[C@H](C)NC(=O)CNC(=O)[C@H](Cc1ccccc1)NC(=O)[C@H](CC(N)=O)NC(=O)[C@@H]1CCCN1C(=O)[C@H](CO)NC(=O)[C@H](CO)NC(=O)[C@H](Cc1c[nH]cn1)NC(=O)[C@H](CCCNC(=N)N)NC(=O)[C@H](CC(C)C)NC(=O)[C@H](Cc1ccccc1)NC(=O)[C@H](CC(N)=O)NC(=O)[C@H](C)NC(=O)[C@H](CC(C)C)NC(=O)[C@H](CCCNC(=N)N)NC(=O)[C@H](CCC(N)=O)NC(=O)[C@@H](NC(=O)[C@H](C)NC(=O)[C@@H]1CSSC[C@H](NC(=O)[C@H](CCCCN)NC(=O)CC[C@H](NC(=O)CCCCCCCCCCCCCCCCCCC(=O)O)C(=O)O)C(=O)N[C@@H](CC(N)=O)C(=O)N[C@@H]([C@@H](C)O)C(=O)N[C@@H](C)C(=O)N[C@@H]([C@@H](C)O)C(=O)N1)[C@@H](C)O)C(=O)N1CCC[C@H]1C(=O)N[C@@H](CO)C(=O)N[C@@H](CO)C(=O)N[C@H](C(=O)N[C@@H](CC(N)=O)C(=O)N[C@H](C(=O)NCC(=O)N[C@@H](CO)C(=O)N[C@@H](CCCCN)C(=O)N[C@H](C(=O)N[C@@H](Cc1ccc(O)cc1)C(N)=O)[C@@H](C)O)C(C)C)[C@@H](C)O [Peptide 13] | 8.58 | 2.61 nM | 0.603 nM | 0.599 nM | 50 | 7.05 | 8.94 | 64 | – | –
2 | CC[C@H](C)[C@H](NC(=O)[C@H](C)NC(=O)CNC(=O)[C@H](Cc1ccccc1)NC(=O)[C@H](CC(N)=O)NC(=O)[C@@H]1CCCN1C(=O)[C@H](CO)NC(=O)[C@H](CO)NC(=O)[C@H](Cc1c[nH]cn1)NC(=O)[C@H](CCCNC(=N)N)NC(=O)[C@H](CC(C)C)NC(=O)[C@H](Cc1ccccc1)NC(=O)[C@H](CC(N)=O)NC(=O)[C@H](C)NC(=O)[C@H](CC(C)C)NC(=O)[C@H](CCCNC(=N)N)NC(=O)[C@H](CCC(N)=O)NC(=O)[C@@H](NC(=O)[C@H](C)NC(=O)[C@@H]1CSSC[C@H](NC(=O)[C@H](CCCCN)NC(=O)COCCOCCNC(=O)COCCOCCNC(=O)CC[C@H](NC(=O)CCCCCCCCCCCCCCCCCCC(=O)O)C(=O)O)C(=O)N[C@@H](CC(N)=O)C(=O)N[C@@H]([C@@H](C)O)C(=O)N[C@@H](C)C(=O)N[C@@H]([C@@H](C)O)C(=O)N1)[C@@H](C)O)C(=O)N1CCC[C@H]1C(=O)N[C@@H](CO)C(=O)N[C@@H](CO)C(=O)N[C@H](C(=O)N[C@@H](CC(N)=O)C(=O)N[C@H](C(=O)NCC(=O)N[C@@H](CO)C(=O)N[C@@H](CC(N)=O)C(=O)N[C@H](C(=O)N[C@@H](Cc1ccc(O)cc1)C(N)=O)[C@@H](C)O)C(C)C)[C@@H](C)O [Peptide 10] | – | – | 1.78 nM | 1.79 nM | 79 | 6.46 | 8.94 | 90 | – | –
3 | CC[C@H](C)[C@H](NC(=O)[C@H](C)NC(=O)CNC(=O)[C@H](Cc1ccccc1)NC(=O)[C@H](CC(N)=O)NC(=O)[C@@H]1CCCN1C(=O)[C@H](CO)NC(=O)[C@H](CO)NC(=O)[C@H](Cc1c[nH]cn1)NC(=O)[C@H](CCCNC(=N)N)NC(=O)[C@H](CC(C)C)NC(=O)[C@H](Cc1ccccc1)NC(=O)[C@H](CC(N)=O)NC(=O)[C@H](C)NC(=O)[C@H](CC(C)C)NC(=O)[C@H](CCCNC(=N)N)NC(=O)[C@H](CCC(N)=O)NC(=O)[C@@H](NC(=O)[C@H](C)NC(=O)[C@@H]1CSSC[C@H](NC(=O)[C@H](CCCCN)NC(=O)CC[C@H](NC(=O)CCCCCCCCCCCCCCCCCCC(=O)O)C(=O)O)C(=O)N[C@@H](CC(N)=O)C(=O)N[C@@H]([C@@H](C)O)C(=O)N[C@@H](C)C(=O)N[C@@H]([C@@H](C)O)C(=O)N1)[C@@H](C)O)C(=O)N1CCC[C@H]1C(=O)N[C@@H](CO)C(=O)N[C@@H](CO)C(=O)N[C@H](C(=O)N[C@@H](CC(N)=O)C(=O)N[C@H](C(=O)NCC(=O)N[C@@H](CCCNC(=N)N)C(=O)N[C@@H](CC(N)=O)C(=O)N[C@H](C(=O)N[C@@H](Cc1ccc(O)cc1)C(N)=O)[C@@H](C)O)C(C)C)[C@@H](C)O [Peptide 16] | 8.60 | – | – | – | – | 7.02 | 9.18 | 29 | 0.662 nM | –
4 | CC[C@H](C)[C@H](NC(=O)[C@H](C)NC(=O)CNC(=O)[C@H](Cc1ccccc1)NC(=O)[C@H](CC(N)=O)NC(=O)[C@@H]1CCCN1C(=O)[C@H](CO)NC(=O)[C@H](CO)NC(=O)[C@H](Cc1c[nH]cn1)NC(=O)[C@H](CCCNC(=N)N)NC(=O)[C@H](CC(C)C)NC(=O)[C@H](Cc1ccccc1)NC(=O)[C@H](CCC(=O)O)NC(=O)[C@H](C)NC(=O)[C@H](CC(C)C)NC(=O)[C@H](CCCNC(=N)N)NC(=O)[C@H](CCC(N)=O)NC(=O)[C@@H](NC(=O)[C@H](C)NC(=O)[C@@H]1CSSC[C@H](NC(=O)[C@H](CCCCN)NC(=O)CC[C@H](NC(=O)CCCCCCCCCCCCCCCCCCC(=O)O)C(=O)O)C(=O)N[C@@H](CC(N)=O)C(=O)N[C@@H]([C@@H](C)O)C(=O)N[C@@H](C)C(=O)N[C@@H]([C@@H](C)O)C(=O)N1)[C@@H](C)O)C(=O)N1CCC[C@H]1C(=O)N[C@@H](CO)C(=O)N[C@@H](CO)C(=O)N[C@H](C(=O)N[C@@H](CC(N)=O)C(=O)N[C@H](C(=O)NCC(=O)N1CCC[C@H]1C(=O)N[C@@H](CC(N)=O)C(=O)N[C@H](C(=O)N[C@@H](Cc1ccc(O)cc1)C(N)=O)[C@@H](C)O)C(C)C)[C@@H](C)O [Peptide 12] ({C20 diacid-γGlu}-KCNTATCATQRLAEFLRHSSPNFGAIPSSTNVGPNTY-NH2; disulfide 2-7) | – | 0.314 nM | – | – | – | 8.22 | – | 11 | – | 0.316 nM
